According to patent US20240190865A1, “T-TYPE CALCIUM CHANNEL ANTAGONISTS AND USES THEREOF” (THE BOARD OF TRUSTEES OF THE LELAND STANFORD JUNIOR …, priority 2021, published 2024):

target: Cav3.2 (Homo sapiens (Human), UniProt O95180); assay: In vitro patch clamp assay (SyncroPatch 384PE); type: cell-based; conditions: HEK293 cells
Procedure: Patch clamp assays were performed at Charles River. HEK293 cells were cultured in Dulbecco's Modified Eagle Medium/Nutrient Mixture F-12 (D-MEM/F-12) supplemented with 10% fetal bovine serum, 100 U/mL penicillin G sodium, 100 μg/mL streptomycin sulfate and 500 μg/mL G418. Before testing, cells in culture dishes were washed twice with Hank's Balanced Salt Solution, treated with Accutase™ and re-suspended in the culture media (˜20×10^6 cells in 20 mL). Cells in suspension were allowed to recover for 10 minutes in tissue culture incubator set at 37° C. in a humidified 95% air: 5% CO2 atmosphere. Immediately before use in the SyncroPatch 384PE system (SP384PE), the cells were washed twice in extracellular buffer (HB-PS) to remove the culture medium and re-suspended in 20 mL of HB-PS. Extracellular buffer was loaded into the wells of Nanion 384-well Patch Clamp (NPC-384, 4×M) chip (60 μL per well). Then, cell suspension was pipetted into the wells (20 μL per well) of the chip. After establishment of the whole-cell configuration, membrane currents were recorded using patch clamp amplifier in the SP384PE system.

Cav3.2, sequence (O95180 whole entry): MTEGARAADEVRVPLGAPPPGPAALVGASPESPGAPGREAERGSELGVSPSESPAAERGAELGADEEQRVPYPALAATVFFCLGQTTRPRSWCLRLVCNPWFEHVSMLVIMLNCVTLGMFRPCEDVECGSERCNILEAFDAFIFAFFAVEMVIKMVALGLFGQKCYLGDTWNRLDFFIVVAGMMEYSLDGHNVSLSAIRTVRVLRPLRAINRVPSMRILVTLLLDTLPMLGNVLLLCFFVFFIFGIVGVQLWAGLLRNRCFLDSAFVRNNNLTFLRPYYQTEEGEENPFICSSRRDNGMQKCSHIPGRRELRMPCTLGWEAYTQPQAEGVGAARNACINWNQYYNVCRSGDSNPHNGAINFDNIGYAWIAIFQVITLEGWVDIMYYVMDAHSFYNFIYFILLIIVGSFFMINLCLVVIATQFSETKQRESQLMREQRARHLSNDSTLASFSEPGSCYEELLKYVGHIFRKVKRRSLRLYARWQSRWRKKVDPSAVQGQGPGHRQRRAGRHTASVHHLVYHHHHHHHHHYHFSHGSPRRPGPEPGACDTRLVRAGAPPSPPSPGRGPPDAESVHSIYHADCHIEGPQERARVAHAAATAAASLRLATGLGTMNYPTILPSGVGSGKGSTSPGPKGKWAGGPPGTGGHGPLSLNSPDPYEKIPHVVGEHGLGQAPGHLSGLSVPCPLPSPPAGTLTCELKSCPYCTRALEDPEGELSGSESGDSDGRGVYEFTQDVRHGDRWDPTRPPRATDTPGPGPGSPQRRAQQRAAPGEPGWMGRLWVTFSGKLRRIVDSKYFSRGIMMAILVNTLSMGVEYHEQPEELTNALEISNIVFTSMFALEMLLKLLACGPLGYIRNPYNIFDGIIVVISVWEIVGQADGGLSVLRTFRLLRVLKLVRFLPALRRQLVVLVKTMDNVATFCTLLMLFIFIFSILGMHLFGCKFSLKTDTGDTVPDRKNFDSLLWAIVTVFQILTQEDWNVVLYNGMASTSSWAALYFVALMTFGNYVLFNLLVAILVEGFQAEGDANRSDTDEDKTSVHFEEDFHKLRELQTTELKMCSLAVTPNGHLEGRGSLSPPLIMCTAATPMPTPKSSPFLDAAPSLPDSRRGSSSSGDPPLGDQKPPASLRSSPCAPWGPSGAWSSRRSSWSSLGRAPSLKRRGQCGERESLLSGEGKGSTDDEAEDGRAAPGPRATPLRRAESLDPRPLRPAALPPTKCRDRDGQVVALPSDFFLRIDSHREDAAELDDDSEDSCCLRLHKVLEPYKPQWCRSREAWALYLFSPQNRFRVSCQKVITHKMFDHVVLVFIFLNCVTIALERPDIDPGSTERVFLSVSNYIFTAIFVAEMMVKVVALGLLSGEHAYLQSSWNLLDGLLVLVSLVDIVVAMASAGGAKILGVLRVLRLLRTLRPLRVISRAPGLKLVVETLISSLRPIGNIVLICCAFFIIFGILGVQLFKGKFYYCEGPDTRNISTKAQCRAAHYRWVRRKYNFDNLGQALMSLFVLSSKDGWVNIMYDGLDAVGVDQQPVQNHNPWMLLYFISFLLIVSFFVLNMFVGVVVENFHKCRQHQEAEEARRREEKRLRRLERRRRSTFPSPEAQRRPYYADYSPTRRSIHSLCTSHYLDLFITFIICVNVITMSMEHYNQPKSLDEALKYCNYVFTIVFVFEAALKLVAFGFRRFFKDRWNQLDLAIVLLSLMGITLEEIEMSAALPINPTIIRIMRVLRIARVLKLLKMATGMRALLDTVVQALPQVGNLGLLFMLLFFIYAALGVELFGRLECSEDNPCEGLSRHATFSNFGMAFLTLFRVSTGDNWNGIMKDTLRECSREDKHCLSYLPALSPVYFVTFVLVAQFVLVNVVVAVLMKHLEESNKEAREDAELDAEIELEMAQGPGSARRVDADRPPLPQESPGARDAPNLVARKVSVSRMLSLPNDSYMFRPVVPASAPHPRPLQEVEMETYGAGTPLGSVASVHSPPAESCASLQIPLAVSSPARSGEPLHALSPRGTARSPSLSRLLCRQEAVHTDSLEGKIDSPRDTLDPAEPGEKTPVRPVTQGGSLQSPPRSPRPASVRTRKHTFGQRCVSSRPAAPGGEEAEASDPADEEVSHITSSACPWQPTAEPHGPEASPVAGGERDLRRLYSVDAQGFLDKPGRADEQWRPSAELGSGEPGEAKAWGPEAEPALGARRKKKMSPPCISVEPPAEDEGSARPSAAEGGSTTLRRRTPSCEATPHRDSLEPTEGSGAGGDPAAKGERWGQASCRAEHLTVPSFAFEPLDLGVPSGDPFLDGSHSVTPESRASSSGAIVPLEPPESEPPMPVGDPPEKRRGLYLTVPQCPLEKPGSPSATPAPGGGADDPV

| IC50 | Structure (SMILES) |
| --- | --- |
| 475 nM | C[C@@H](NC(=O)Cc1ccc(C2CC2(F)F)cc1)c1cc2cnn(CC(F)(F)F)c2cn1 (single isomer, unassigned) [Example 30] |
| 505 nM | C[C@@H](NC(=O)Cc1ccc(C2CC2(F)F)cc1)c1cc2cnn(CC(F)(F)F)c2cn1 (single isomer, unassigned) [Example 31] |
| 522 nM | CC(C)c1ccc(CC(=O)N[C@H](C)c2cc3cnn(C)c3cn2)cc1 [Example 1, (R)-2-(4-isopropylphenyl)-N-(1-(1-methyl-1H-pyrazolo[3,4-c]pyridin-5-yl)ethyl)acetamide] |
| 6450 nM | CC(C)c1ccc(CC(=O)N[C@H](C)c2cc3cn(C)nc3cn2)cc1 [Example 2, (R)-2-(4-isopropylphenyl)-N-(1-(2-methyl-2H-pyrazolo[3,4-c]pyridin-5-yl)ethyl)acetamide] |
| > 10000 nM | CC(C)c1ccc(CC(=O)N[C@H](C)c2cc3c(cn2)cnn3C)cc1 [Example 3, (R)-2-(4-isopropylphenyl)-N-(1-(1-methyl-1H-pyrazolo[4,3-c]pyridin-6-yl)ethyl)acetamide] |
| > 10000 nM | CC(C)c1ccc(CC(=O)N[C@H](C)c2cc3nn(C)cc3cn2)cc1 [Example 4, (R)-2-(4-isopropylphenyl)-N-(1-(2-methyl-2H-pyrazolo[4,3-c]pyridin-6-yl)ethyl)acetamide] |
| 1220 nM | Cc1noc2cc([C@@H](C)NC(=O)Cc3ccc(C(C)C)cc3)ncc12 [Example 5, (R)-2-(4-isopropylphenyl)-N-(1-(3-methylisoxazolo[4,5-c]pyridin-6-yl)ethyl)acetamide] |
| 7840 nM | Cc1noc2cnc([C@@H](C)NC(=O)Cc3ccc(C(C)C)cc3)cc12 [Example 6, (R)-2-(4-isopropylphenyl)-N-(1-(3-methylisoxazolo[5,4-c]pyridin-5-yl)ethyl)acetamide] |
| 110 nM | CCCn1ncc2cc([C@@H](C)NC(=O)Cc3ccc(C(C)C)cc3)ncc21 [Example 7, (R)-2-(4-isopropylphenyl)-N-(1-(1-propyl-1H-pyrazolo[3,4-c]pyridin-5-yl)ethyl)acetamide] |
| 126 nM | CCn1ncc2cc([C@@H](C)NC(=O)Cc3ccc(C(C)C)cc3)ncc21 [Example 8, (R)—N-(1-(1-ethyl-1H-pyrazolo[3,4-c]pyridin-5-yl)ethyl)-2-(4-isopropylphenyl)acetamide] |
| 44 nM | CC(C)c1ccc(CC(=O)N[C@H](C)c2cc3cnn(CC(F)(F)F)c3cn2)cc1 [Example 9, (R)-2-(4-isopropylphenyl)-N-(1-(1-(2,2,2-trifluoroethyl)-1H-pyrazolo[3,4-c]pyridin-5-yl)ethyl)acetamide] |
| > 10000 nM | C[C@@H](NC(=O)Cc1ccc(C2(C(F)(F)F)CC2)cc1)c1cnc2c(cnn2C)c1 [Example 10, (R)—N-(1-(1-methyl-1H-pyrazolo[3,4-b]pyridin-5-yl)ethyl)-2-(4-(1-(trifluoromethyl)cyclopropyl)phenyl)acetamide] |
| 2420 nM | CCCn1cc2cc([C@@H](C)NC(=O)Cc3ccc(C(C)C)cc3)ncc2n1 [Example 11, (R)-2-(4-isopropylphenyl)-N-(1-(2-propyl-2H-pyrazolo[3,4-c]pyridin-5-yl)ethyl)acetamide] |
| 647 nM | C[C@@H](NC(=O)Cc1ccc(C2(C(F)(F)F)CC2)cc1)c1cc2cnn(C)c2cn1 [Example 12, (R)—N-(1-(1-methyl-1H-pyrazolo[3,4-c]pyridin-5-yl)ethyl)-2-(4-(1-(trifluoromethyl)cyclopropyl)phenyl)acetamide] |
| 710 nM | CC(C)c1ccc(CC(=O)N[C@H](C)c2cc3cnn(C)c3nn2)cc1 [Example 13, (R)-2-(4-isopropylphenyl)-N-(1-(1-methyl-1H-pyrazolo[3,4-c]pyridazin-5-yl)ethyl)acetamide] |
| 85 nM | CC(C)c1ccc(CC(=O)N[C@H](C)c2cc3cnn(CC(C)(F)F)c3cn2)cc1 [Example 14, (R)—N-(1-(1-(2,2-difluoropropyl)-1H-pyrazolo[3,4-c]pyridin-5-yl)ethyl)-2-(4-isopropylphenyl)acetamide] |
| 1270 nM | C[C@@H](NC(=O)Cc1ccc(C(C)(F)F)nc1)c1cc2cnn(CC(F)(F)F)c2cn1 [Example 16, (R)-2-(6-(1,1-difluoroethyl)pyridin-3-yl)-N-(1-(1-(2,2,2-trifluoroethyl)-1H-pyrazolo[3,4-c]pyridin-5-yl)ethyl)acetamide] |

| IC50 | Structure (SMILES) |
| --- | --- |
| 292 nM | C[C@@H](NC(=O)Cc1ccc(C2(C(F)(F)F)CC2)s1)c1cc2cnn(CC(F)(F)F)c2cn1 [Example 17, (R)—N-(1-(1-(2,2,2-trifluoroethyl)-1H-pyrazolo[3,4-c]pyridin-5-yl)ethyl)-2-(5-(1-(trifluoromethyl)cyclopropyl)thiophen-2-yl)acetamide] |
| 343 nM | CC(C)c1ccc(CC(=O)N[C@H](C)c2cc3cnn(CC4(F)CC4)c3cn2)cc1 [Example 18, (R)—N-(1-(1-((1-fluorocyclopropyl)methyl)-1H-pyrazolo[3,4-c]pyridin-5-yl)ethyl)-2-(4-isopropylphenyl)acetamide] |
| 132 nM | C[C@@H](NC(=O)Cc1ccc(C(C)(F)F)cc1)c1cc2cnn(CC(F)(F)F)c2cn1 [Example 19, (R)-2-(4-(1,1-difluoroethyl)phenyl)-N-(1-(1-(2,2,2-trifluoroethyl)-1H-Pyrazolo[3,4-c]pyridin-5-yl)ethyl)acetamide] |
| 1050 nM | CC(C)c1ccc(CC(=O)N[C@H](C)c2cc3cnn(CC(F)(F)F)c3cn2)cn1 [Example 20, (R)-2-(6-isopropylpyridin-3-yl)-N-(1-(1-(2,2,2-trifluoroethyl)-1H-pyrazolo[3,4-c]pyridin-5-yl)ethyl)acetamide] |
| 637 nM | C[C@@H](NC(=O)Cc1ccc(C2(C(F)F)CC2)nc1)c1cc2cnn(CC(F)(F)F)c2cn1 [Example 21, (R)-2-(6-(1-(difluoromethyl)cyclopropyl)pyridin-3-yl)-N-(1-(1-(2,2,2-trifluoroethyl)-1H-pyrazolo[3,4-c]pyridin-5-yl)ethyl)acetamide] |
| 194 nM | C[C@@H](NC(=O)Cc1ccc(C2(C(F)F)CC2)cc1)c1cc2cnn(CC(F)(F)F)c2cn1 [Example 22, (R)-2-(4-(1-(difluoromethyl)cyclopropyl)phenyl)-N-(1-(1-(2,2,2-trifluoroethyl)-1H-pyrazolo[3,4-c]pyridin-5-yl)ethyl)acetamide] |
| 4020 nM | C[C@@H](NC(=O)Cc1ccc(C2CC2)nc1)c1cc2cnn(-c3ccc(F)cc3)c2cn1 [Example 23, (R)-2-(6-cyclopropylnyridin-3-yl)-N-(1-(1-(4-fluorophenyl)-1H-pyrazolo[3,4-c]pyridin-5-yl)ethyl)acetamide] |
| 333 nM | C[C@@H](NC(=O)Cc1ccc(C2CC2)cc1)c1cc2nnn(CC(F)(F)F)c2cn1 [Example 24, (R)-2-(4-cyclopropylphenyl)-N-(1-(3-(2,2,2-trifluoroethyl)-3H-[1,2,3]triazolo[4,5-c]pyridin-6-yl)ethyl)acetamide] |
| 2590 nM | C[C@@H](NC(=O)Cc1ccc(C2CC2)nc1)c1cc2cnn(CC(F)(F)F)c2cn1 [Example 25, (R)-2-(6-cyclopropylpyridin-3-yl)-N-(1-(1-(2,2,2-trifluoroethyl)-1H-pyrazolo[3,4-c]pyridin-5-yl)ethyl)acetamide] |
| 7030 nM | C[C@@H](NC(=O)Cc1ccc(C2(C(F)(F)F)CC2)nc1)c1cc2cnn(CC(F)(F)F)c2cn1 [Example 26, (R)—N-(1-(1-(2,2,2-trifluoroethyl)-1H-pyrazolo[3,4-c]pyridin-5-yl)ethyl)-2-(6-(1-(trifluoromethyl)cyclopropyl)pyridin-3-yl)acetamide] |
| 861 nM | C[C@@H](NC(=O)Cc1ccc(C2CC2)cc1)c1cc2cnn(-c3ccc(F)cc3)c2cn1 [Example 27, (R)-2-(4-cyclopropylphenyl)-N-(1-(1-(4-fluorophenyl)-1H-Pyrazolo[3,4-c]pyridin-5-yl)ethyl)acetamide] |
| 89 nM | C[C@@H](NC(=O)Cc1ccc(C2CC2)cc1)c1cc2cnn(CC(F)(F)F)c2cn1 [Example 28, (R)-2-(4-cyclopropylphenyl)-N-(1-(1-(2,2,2-trifluoroethyl)-1H-pyrazolo[3,4-c]pyridin-5-yl)ethyl)acetamide] |
| 533 nM | C[C@@H](NC(=O)Cc1ccc(C2(F)CC2)cc1)c1cc2cnn(CC(F)(F)F)c2cn1 [Example 29, (R)-2-(4-(1-fluorocyclopropyl)phenyl)-N-(1-(1-(2,2,2-trifluoroethyl)-1H-pyrazolo[3,4-c]pyridin-5-yl)ethyl)acetamide] |
| 9420 nM | Cc1nn(CC(F)(F)F)c2cnc([C@@H](C)NC(=O)Cc3ccc(C(C)C)cc3)cc12 [Example 32, (R)-2-(4-isopropylphenyl)-N-(1-(3-methyl-1-(2,2,2-trifluoroethyl)-1H-pyrazolo[3,4-c]pyridin-5-yl)ethyl)acetamide] |
| 8270 nM | Cc1nn(CC(F)(F)F)c2cnc([C@@H](C)NC(=O)Cc3ccc(C4CC4)cc3)cc12 [Example 33, (R)-2-(4-cyclopropylphenyl)-N-(1-(3-methyl-1-(2,2,2-trifluoroethyl)-1H-pyrazolo[3,4-c]pyridin-5-yl)ethyl)acetamide] |
| > 10000 nM | C[C@@H](NC(=O)Cc1ccc(C2CC2)cn1)c1cc2cnn(CC(F)(F)F)c2cn1 [Example 34, (R)-2-(5-cyclopropylpyridin-2-yl)-N-(1-(1-(2,2,2-trifluoroethyl)-1H-pyrazolo[3,4-c]pyridin-5-yl)ethyl)acetamide] |
| 2130 nM | C[C@@H](NC(=O)Cc1cnc(C(C)(F)F)c(Cl)c1)c1cc2cnn(CC(F)(F)F)c2cn1 [Example 35, (R)-2-(5-chloro-6-(1,1-difluoroethyl)pyridin-3-yl)-N-(1-(1-(2,2,2-trifluoroethyl)-1H-pyrazolo[3,4-c]pyridin-5-yl)ethyl)acetamide] |
